From PubChem BioAssay (NCI) come the findings set out here.

The structures appear in SMILES notation.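 All cell lines were grown in 96-well plates and treated with compound for 48 hours. TGI denotes the concentration required for complete inhibition of growth.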 *1 amine or outer side, *2 acyl side, *3 side chain or, on linkers, in order; H or OH if unused. Where a SMILES comes first, the peptide text is derived from it. [ ]: non-standard residue; d: D form. The star is where a group is joined. X33 = C=CCC(O[*:1])C(=O)[*:2]; NMeV = CN[CH](C(=O)O)C(C)C; NMeA = CN[CH](C)C(=O)O; Boc = CC(C)(C)OC(=O)*; OBn = c1ccc(CO*)cc1; βAla = NCCC(=O)O Where only a bound is given, the exact number is not on record here.

Among the test systems are HOP-62 NSCLC; NCI/ADR-RES ovarian; KM12 colon; OVCAR-3 ovarian; SF-295 CNS; RPMI-8226 leukemia; SNB-19 CNS; COLO 205 colon; SK-MEL-5 melanoma; HCC-2998 colon; HOP-92 NSCLC; HT29 colon; SR leukemia; A549 NSCLC; HL-60(TB) leukemia; MCF7 breast; U251 CNS.
Common to all, as to assay: growth of human tumour cells (NCI), 48 h

Turning to `CCOP(=O)(OCC)C1=C(c2ccccc2)OC(N)=C(C#N)C1c1ccc(Cl)cc1` (stereo not given), the TGI in the assay with HOP-62 NSCLC, in the assay on NCI/ADR-RES ovarian, in the assay with KM12 colon, with OVCAR-3 ovarian, in the assay with SF-295 CNS and with RPMI-8226 leukemia was above 100 µM throughout. The TGI in the assay on SNB-19 CNS, with COLO 205 colon, with SK-MEL-5 melanoma, with HCC-2998 colon, in the assay with HOP-92 NSCLC and in the assay on HT29 colon was above 100 µM each time. Also, the TGI with SR leukemia, with A549 NSCLC, in the assay with HL-60(TB) leukemia, with MCF7 breast and in the assay on U251 CNS was above 100 µM throughout.
Regarding `Cc1n[nH]c(=O)n1/N=C\CC/C=N\n1c(C)n[nH]c1=O`, the TGI with HOP-62 NSCLC, in the assay with NCI/ADR-RES ovarian, in the assay on KM12 colon, with OVCAR-3 ovarian, in the assay on SF-295 CNS and in the assay with RPMI-8226 leukemia was above 100 µM in each case. Also, the TGI in the assay on SNB-19 CNS, in the assay with COLO 205 colon, with SK-MEL-5 melanoma, in the assay on HCC-2998 colon, in the assay with HOP-92 NSCLC and in the assay on HT29 colon was above 100 µM in each case. In addition, the TGI in the assay with SR leukemia, with A549 NSCLC, with HL-60(TB) leukemia, in the assay with MCF7 breast and in the assay with U251 CNS was above 100 µM throughout.
For the compound `CC(NC(=O)C(Cc1ccccc1)NC(=O)C(Cc1ccccc1)NC(=O)OC(C)(C)C)C(=O)OCc1ccccc1` (stereo not drawn) (Boc-Phe-Phe-Ala-OBn; configuration not given here), the TGI in the assay on HOP-62 NSCLC, with NCI/ADR-RES ovarian, in the assay on KM12 colon, in the assay on OVCAR-3 ovarian, in the assay on SF-295 CNS and with RPMI-8226 leukemia was above 100 µM in each case. The TGI with COLO 205 colon is above 100 µM; in the assay on SK-MEL-5 melanoma it was above 100 µM; with HCC-2998 colon it was above 100 µM; in the assay with HOP-92 NSCLC, 81.2 µM; in the assay with HT29 colon, above 100 µM; in the assay with SR leukemia, above 100 µM. The TGI with A549 NSCLC, in the assay on HL-60(TB) leukemia, in the assay on MCF7 breast and in the assay on U251 CNS was above 100 µM throughout.
For `CC(C)(C)OC(=O)N/N=C(/N)Cc1ccccc1`, the TGI in the assay with HOP-62 NSCLC, with NCI/ADR-RES ovarian, in the assay with KM12 colon, with OVCAR-3 ovarian, in the assay with SF-295 CNS and with RPMI-8226 leukemia was above 100 µM in each case. The TGI with SNB-19 CNS, with COLO 205 colon, in the assay on SK-MEL-5 melanoma, with HCC-2998 colon, in the assay with HOP-92 NSCLC and with HT29 colon was above 100 µM each time. In addition, the TGI with SR leukemia, in the assay with A549 NSCLC, with HL-60(TB) leukemia, in the assay on MCF7 breast and in the assay on U251 CNS was above 100 µM throughout.
As for `O=C1NC(=O)C(COCc2ccccc2)C2=C1SCCC2` (stereo not given), the TGI with HOP-62 NSCLC, in the assay on NCI/ADR-RES ovarian, with KM12 colon, with OVCAR-3 ovarian, with SF-295 CNS and in the assay on RPMI-8226 leukemia was above 100 µM each time. Further, the TGI in the assay with SNB-19 CNS, in the assay with COLO 205 colon, in the assay on SK-MEL-5 melanoma, with HCC-2998 colon, in the assay on HOP-92 NSCLC and in the assay on HT29 colon was above 100 µM in each case. The TGI in the assay with SR leukemia, in the assay on A549 NSCLC, in the assay on HL-60(TB) leukemia, in the assay on MCF7 breast and in the assay with U251 CNS was above 100 µM in each case.
As to `NNCCc1n[nH]c(=O)n1N`, the TGI in the assay on HOP-62 NSCLC, in the assay on NCI/ADR-RES ovarian, in the assay with KM12 colon, with OVCAR-3 ovarian, in the assay with SF-295 CNS and in the assay on RPMI-8226 leukemia was above 100 µM in each case. In addition, the TGI in the assay with SNB-19 CNS, in the assay with COLO 205 colon, in the assay on SK-MEL-5 melanoma, in the assay on HCC-2998 colon, in the assay with HOP-92 NSCLC and in the assay on HT29 colon was above 100 µM in each case. For the same compound, the TGI in the assay with SR leukemia, in the assay on A549 NSCLC, in the assay with HL-60(TB) leukemia, in the assay on MCF7 breast and in the assay on U251 CNS was above 100 µM each time.
Consider `CCCCOCCOC1=CC(=O)c2c(O)ccc(O)c2C1=O`, for which the TGI in the assay on HOP-62 NSCLC was 1.8 µM; in the assay with NCI/ADR-RES ovarian, 4.74 µM; in the assay on KM12 colon, 3.14 µM; with OVCAR-3 ovarian, 3.04 µM; in the assay with SF-295 CNS, 3.02 µM; with RPMI-8226 leukemia it was above 10 µM. For the same compound, the TGI in the assay with SNB-19 CNS was 3.12 µM; in the assay on COLO 205 colon, 2.36 µM; in the assay with SK-MEL-5 melanoma, 0.422 µM; in the assay with HCC-2998 colon, 3.3 µM; in the assay with HOP-92 NSCLC, 4.44 µM; with HT29 colon, 3.12 µM. The TGI in the assay on SR leukemia is 5.11 µM; in the assay with A549 NSCLC, 3.41 µM; with HL-60(TB) leukemia, 2.99 µM; in the assay with MCF7 breast it was 3.15 µM; with U251 CNS, 3.07 µM.
Regarding `COc1cccc(C2SCC(=O)N2c2ccc(-n3c(-c4ccccc4)nc4ccccc4c3=O)cc2)c1OC` (stereo not given), the TGI in the assay with HOP-62 NSCLC, in the assay on NCI/ADR-RES ovarian, in the assay with KM12 colon, in the assay on OVCAR-3 ovarian, in the assay with SF-295 CNS and in the assay on RPMI-8226 leukemia was above 100 µM throughout. Moreover, the TGI with SNB-19 CNS, with COLO 205 colon, in the assay with SK-MEL-5 melanoma, in the assay on HCC-2998 colon, in the assay with HOP-92 NSCLC and in the assay with HT29 colon was above 100 µM throughout. The TGI in the assay with SR leukemia, with A549 NSCLC, in the assay on HL-60(TB) leukemia, with MCF7 breast and in the assay with U251 CNS was above 100 µM each time.
Take `C=CCC1OC(=O)CCNC(=O)C(C)N(C)C(=O)C(C(C)C)N(C)C(=O)C(C(C)CC)NC(=O)C2CCCN2C1=O` (stereo not given) (cyclo([X33]PI[NMeV][NMeA][βAla]); configuration not given here): the TGI in the assay with HOP-62 NSCLC is above 100 µM; in the assay with NCI/ADR-RES ovarian it was above 100 µM; in the assay with KM12 colon it was above 100 µM; with OVCAR-3 ovarian it was above 100 µM; in the assay on SF-295 CNS, above 100 µM; with RPMI-8226 leukemia it was 7.84 µM. Besides, the TGI in the assay on SNB-19 CNS was above 100 µM; with COLO 205 colon, above 100 µM; in the assay on SK-MEL-5 melanoma, 6.12 µM; in the assay with HCC-2998 colon it was above 100 µM; with HOP-92 NSCLC it was above 100 µM; in the assay on HT29 colon it was above 100 µM. In addition, the TGI with SR leukemia was above 100 µM; in the assay on A549 NSCLC, above 100 µM; in the assay with HL-60(TB) leukemia, 8.47 µM; with MCF7 breast it was above 100 µM; in the assay with U251 CNS, above 100 µM.
`O=C1/C(=C/c2c(Cl)[nH]c3ccccc23)c2ccccc2N1c1ccccc1`: the TGI worked out at 26.1 µM in the assay with HOP-62 NSCLC; 6.55 µM in the assay on NCI/ADR-RES ovarian; 19.7 µM with KM12 colon; 6.26 µM with OVCAR-3 ovarian; 8.54 µM in the assay on SF-295 CNS; 22.3 µM with RPMI-8226 leukemia. The TGI in the assay on SNB-19 CNS is above 100 µM; in the assay on COLO 205 colon it was 5.34 µM; in the assay with HCC-2998 colon it was 20.7 µM; in the assay with HOP-92 NSCLC, 31.8 µM; in the assay with HT29 colon, 18.9 µM; with SR leukemia it was 19.6 µM. Besides, the TGI in the assay with A549 NSCLC was above 100 µM; with HL-60(TB) leukemia it was 13.9 µM; with MCF7 breast, 30.9 µM; in the assay with U251 CNS, 22.9 µM.
As for `COC(=O)CC(=O)Nc1sccc1S(=O)(=O)c1ccccc1`, the TGI is above 100 µM in the assay on NCI/ADR-RES ovarian; above 100 µM in the assay with KM12 colon; 43.5 µM with OVCAR-3 ovarian; above 100 µM in the assay on SF-295 CNS; above 100 µM in the assay on RPMI-8226 leukemia; above 100 µM in the assay on SNB-19 CNS. Besides, the TGI in the assay on COLO 205 colon was above 100 µM; in the assay on SK-MEL-5 melanoma, above 100 µM; in the assay on HCC-2998 colon, 41.6 µM; with HOP-92 NSCLC, above 100 µM; in the assay on HT29 colon, above 100 µM; with SR leukemia, above 100 µM. Also, the TGI with A549 NSCLC, in the assay on HL-60(TB) leukemia, with MCF7 breast and in the assay with U251 CNS was above 100 µM in each case.
For `O=c1[nH]c(-c2ccccc2)nc2c1sc1nc3ccccc3n12`, the TGI in the assay on NCI/ADR-RES ovarian, in the assay on KM12 colon, with OVCAR-3 ovarian, with SF-295 CNS, with RPMI-8226 leukemia and with SNB-19 CNS was above 100 µM throughout. Besides, the TGI in the assay with COLO 205 colon, in the assay with SK-MEL-5 melanoma, in the assay on HCC-2998 colon, in the assay with HOP-92 NSCLC, in the assay with HT29 colon and in the assay on SR leukemia was above 100 µM each time. For the same compound, the TGI in the assay with A549 NSCLC, with HL-60(TB) leukemia, in the assay with MCF7 breast and in the assay with U251 CNS was above 100 µM each time.
